This is an account of results in patent publication US9464084B2, “P2X7 modulators” (Janssen Pharmaceutica NV, priority 2013, dated 2016).

Common to all, as to format: cell-based
Assay [1] deals with T1, P2X7 (Homo sapiens (Human), UniProt Q99572). As to the kind of experiment: Ca2+ flux (FLIPR) in 1321N1 cells expressing recombinant human P2X7 channel.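 Also: Calcium-4 dye-loaded cells exposed to compound for 30 min before agonist addition, fluorescence change read 180 s after agonist.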 Particulars: 250 μM BzATP.
Procedure: Cells were seeded at a density of 25000 cells/well (96-well clear bottom black walled plates) in 100 μl volume/well. On the day of the experiment, cell plates were washed with assay buffer, containing (in mM): 130 NaCl, 2 KCl, 1 CaCl2, 1 MgCl2, 10 HEPES, 5 glucose; pH 7.40 and 300 mOs. After the wash, cells were loaded with the Calcium-4 dye (Molecular Device) and incubated in the dark for 60 minutes. Test compounds were prepared at 250× the test concentration in neat DMSO. Intermediate 96-well compound plates were prepared by transferring 1.2 μL of the compound into 300 μL of assay buffer. A further 3× dilution occurred when transferring 50 μL/well of the compound plate to 100 μL/well in the cell plate. Cells were incubated with test compounds and dye for 30 minutes. […] The fluorescence change was measured 180 seconds after adding the agonist.
Assay [2] addresses T1, P2X7. As to the kind of experiment: P2X7 antagonism in human PBMCs (LPS + Bz-ATP induced IL-1β release, ELISA).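 As to all read-outs here: PBMCs from donor human blood, with a further 1.5 h incubation of the cells in the assay.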 Particulars: LPS 30 ng/ml, Bz-ATP 0.5 mM; for PBMC 10 μM (% control): compound 10 μM; for PBMC 1 μM (% control): compound 1 μM.
Assay [3] concerns the target rat P2X7 (Rattus norvegicus (Rat), UniProt Q64663). As to the kind of experiment: Ca2+ flux (FLIPR) in 1321N1 cells expressing recombinant rat P2X7 channel.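 Also: Calcium-4 dye fluorescence change read 180 s after agonist addition, following 30 min cell preincubation with test compound.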 The note with it: 250 μM BzATP.

Chain of rat P2X7 (Q64663 whole entry): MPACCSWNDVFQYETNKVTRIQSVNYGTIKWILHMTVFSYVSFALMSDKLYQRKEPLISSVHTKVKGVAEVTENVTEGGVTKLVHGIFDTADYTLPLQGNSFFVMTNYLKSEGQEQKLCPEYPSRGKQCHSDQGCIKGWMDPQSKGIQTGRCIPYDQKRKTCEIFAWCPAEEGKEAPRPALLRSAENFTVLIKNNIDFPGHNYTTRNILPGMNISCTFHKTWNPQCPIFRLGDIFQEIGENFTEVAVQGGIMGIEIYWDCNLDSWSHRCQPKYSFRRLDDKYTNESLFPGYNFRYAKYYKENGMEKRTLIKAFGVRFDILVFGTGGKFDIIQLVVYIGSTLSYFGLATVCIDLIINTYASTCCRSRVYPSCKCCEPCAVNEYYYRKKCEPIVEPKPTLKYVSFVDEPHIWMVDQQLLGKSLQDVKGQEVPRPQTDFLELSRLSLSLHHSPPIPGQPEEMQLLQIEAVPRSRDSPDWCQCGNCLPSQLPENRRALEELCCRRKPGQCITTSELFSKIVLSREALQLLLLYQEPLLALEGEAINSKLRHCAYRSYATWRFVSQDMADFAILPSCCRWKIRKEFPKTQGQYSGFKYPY
T1 sequence (Q99572 whole entry): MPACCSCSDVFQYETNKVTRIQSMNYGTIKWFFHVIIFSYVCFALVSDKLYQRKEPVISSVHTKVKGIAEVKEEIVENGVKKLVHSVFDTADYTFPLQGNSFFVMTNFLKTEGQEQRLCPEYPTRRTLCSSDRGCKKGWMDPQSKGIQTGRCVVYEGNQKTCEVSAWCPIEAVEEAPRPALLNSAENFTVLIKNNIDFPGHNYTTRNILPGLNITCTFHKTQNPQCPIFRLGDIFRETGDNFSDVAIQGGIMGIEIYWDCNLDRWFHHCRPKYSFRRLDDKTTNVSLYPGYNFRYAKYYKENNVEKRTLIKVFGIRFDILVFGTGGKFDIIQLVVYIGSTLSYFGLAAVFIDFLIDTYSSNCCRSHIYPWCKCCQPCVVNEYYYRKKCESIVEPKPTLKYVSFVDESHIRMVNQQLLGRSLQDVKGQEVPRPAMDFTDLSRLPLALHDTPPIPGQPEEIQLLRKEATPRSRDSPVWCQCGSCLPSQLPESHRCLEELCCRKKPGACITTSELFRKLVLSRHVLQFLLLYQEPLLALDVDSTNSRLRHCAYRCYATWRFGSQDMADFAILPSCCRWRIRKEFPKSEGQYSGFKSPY

For the compound `COc1ccc(-n2nnc3c2CCN(C(=O)c2cccc(C(F)(F)F)c2Cl)C3C)nc1` (stereo not drawn) [Example 145, (2-Chloro-3-(trifluoromethyl)phenyl)(1-(5-methoxypyridin-2-yl)-4-methyl-6,7-dihydro-1H-[1,2,3]triazolo[4,5-c]pyridin-5(4H)-yl)methanone], in assay [1], the IC50 worked out at 2310 nM. Besides, the “PBMC 10 μM (% control)” value in assay [2] came to 15.2 % control.

Take `O=C(c1cccc(C(F)(F)F)c1Cl)N1CCc2c(nc(C(F)(F)F)n2-c2ccccc2)C1` [Example 38, (2-Chloro-3-(trifluoromethyl)phenyl)(1-phenyl-2-(trifluoromethyl)-6,7-dihydro-1H-imidazo[4,5-c]pyridin-5(4H)-yl)methanone]: the IC50 in assay [1] amounted to 14.3 nM. The “PBMC 10 μM (% control)” value in assay [2] is −0.3 % control.

With `CCOC(=O)C1c2ncn(-c3ccccc3)c2CCN1C(=O)c1cccc(Cl)c1Cl` (stereo not drawn) [Example 27, Ethyl 5-(2,3-dichlorobenzoyl)-1-phenyl-4,5,6,7-tetrahydro-1H-imidazo[4,5-c]pyridine-4-carboxylate], the “PBMC 1 μM (% control)” value in assay [2] stood at 39.2 % control. Further, the IC50 in assay [3] was determined as 1890 nM.

In the case of `Cc1ccnc(-n2nnc3c2CCN(C(=O)c2cccc(C(F)(F)F)c2F)C3C)n1` (stereo not drawn) [Example 269, (2-fluoro-3-(trifluoromethyl)phenyl)(4-methyl-1-(4-methylpyrimidin-2-yl)-6,7-dihydro-1H-[1,2,3]triazolo[4,5-c]pyridin-5(4H)-yl)methanone], in assay [2], the “PBMC 10 μM (% control)” value is given as 16.3 % control. Besides, the IC50 in assay [3] was found to be 20.6 nM.

Consider `Cc1nc(-n2nnc3c2CCN(C(=O)c2cccc(C(F)(F)F)c2Cl)[C@@H]3C)ncc1F` (single isomer, unassigned) [Example 305, (R*)-(2-chloro-3-(trifluoromethyl)phenyl)(1-(5-fluoro-4-methylpyrimidin-2-yl)-4-methyl-6,7-dihydro-1H-[1,2,3]triazolo[4,5-c]pyridin-5(4H)-yl)methanone], for which the “PBMC 10 μM (% control)” value in assay [2] turned out to be 0.9 % control. The IC50 in assay [3] was 19.7 nM.

Consider `CCCOc1cccnc1-n1nnc2c1CCN(C(=O)c1cccc(C(F)(F)F)c1Cl)C2C` (stereo not drawn) [Example 293, (2-chloro-3-(trifluoromethyl)phenyl)(4-methyl-1-(3-propoxypyridin-2-yl)-6,7-dihydro-1H-[1,2,3]triazolo[4,5-c]pyridin-5(4H)-yl)methanone], for which the “PBMC 10 μM (% control)” value in assay [2] is given as −11.3 % control. Moreover, in assay [3], the IC50 came to 428 nM.

As for `O=C(c1cccc(C(F)(F)F)c1Cl)N1CCc2c(ncn2-c2ccccn2)C1CF` (stereo not drawn) [Example 32, (2-Chloro-3-(trifluoromethyl)phenyl)(4-(fluoromethyl)-1-(pyridin-2-yl)-6,7-dihydro-1H-imidazo[4,5-c]pyridin-5(4H)-yl)methanone], the “PBMC 10 μM (% control)” value in assay [2] was 1.9 % control. Further, the IC50 in assay [3] amounted to 65.5 nM.

On to `C[C@H]1Cc2c(nnn2-c2ncc(F)cn2)CN1C(=O)c1cc(C(F)(F)F)ccc1F` (single isomer, unassigned) [Example 232, (S*)-(2-fluoro-5-(trifluoromethyl)phenyl)(1-(5-fluoropyrimidin-2-yl)-6-methyl-6,7-dihydro-1H-[1,2,3]triazolo[4,5-c]pyridin-5(4H)-yl)methanone], for which the “PBMC 10 μM (% control)” value in assay [2] is given as 7.5 % control. In addition, in assay [3], the IC50 was above 10000 nM.

As to `Cc1cc(C)nc(-n2nnc3c2CCN(C(=O)c2cccc(Cl)c2Cl)C3C)n1` (stereo not drawn) [Example 179, (2,3-dichlorophenyl)(1-(4,6-dimethylpyrimidin-2-yl)-4-methyl-6,7-dihydro-1H-[1,2,3]triazolo[4,5-c]pyridin-5(4H)-yl)methanone], the “PBMC 10 μM (% control)” value in assay [2] is given as −4.3 % control. The 50% inhibitory concentration (IC50) in assay [3] was above 10000 nM.

For `Cc1ccc(-n2nnc3c2CCN(C(=O)c2cccc(C(F)(F)F)c2Cl)C3C)nc1` (stereo not drawn) [Example 301, (2-chloro-3-(trifluoromethyl)phenyl)(4-methyl-1-(5-methylpyridin-2-yl)-6,7-dihydro-1H-[1,2,3]triazolo[4,5-c]pyridin-5(4H)-yl)methanone], the “PBMC 10 μM (% control)” value in assay [2] is −2.2 % control. Further, in assay [3], the IC50 worked out at 163 nM.

As to `CC1c2ncn(-c3ncccn3)c2CCN1C(=O)c1cccc(C(F)(F)F)c1Cl` (stereo not drawn) [Example 23, (2-Chloro-3-(trifluoromethyl)phenyl)(4-methyl-1-(pyrimidin-2-yl)-6,7-dihydro-1H-imidazo[4,5-c]pyridin-5(4H)-yl)methanone], the “PBMC 10 μM (% control)” value in assay [2] turned out to be 6.4 % control. The IC50 in assay [3] came to 90.6 nM.

Take `CC1(C)c2ncn(-c3ccccc3)c2CCN1C(=O)c1cccc(C(F)(F)F)c1Cl` [Example 53, 5-{[2-Chloro-3-(trifluoromethyl)phenyl]carbonyl}-4,4-dimethyl-1-phenyl-4,5,6,7-tetrahydro-1H-imidazo[4,5-c]pyridine]: in assay [2], the “PBMC 1 μM (% control)” value is reported as 99.0 % control. Also, the IC50 in assay [3] came out at 4950 nM.

Turning to `CCOc1cccnc1-n1nnc2c1CCN(C(=O)c1cccc(C(F)(F)F)c1Cl)[C@H]2C` (single isomer, unassigned) [Example 317, (S*)-(2-chloro-3-(trifluoromethyl)phenyl)(1-(3-ethoxypyridin-2-yl)-4-methyl-6,7-dihydro-1H-[1,2,3]triazolo[4,5-c]pyridin-5(4H)-yl)methanone], the “PBMC 10 μM (% control)” value in assay [2] is given as 4.8 % control. The IC50 in assay [3] is above 10000 nM.

Turning to `Cc1cc(C)nc(-n2nnc3c2CCN(C(=O)c2cccc(C(F)(F)F)c2Cl)[C@@H]3C)n1` (single isomer, unassigned) [Example 181, (R*)-(2-chloro-3-(trifluoromethyl)phenyl)(1-(4,6-dimethylpyrimidin-2-yl)-4-methyl-6,7-dihydro-1H-[1,2,3]triazolo[4,5-c]pyridin-5(4H)-yl)methanone], the “PBMC 10 μM (% control)” value in assay [2] was −0.1 % control. For the same compound, the IC50 in assay [3] is above 10000 nM.

`C[C@@H]1c2n[nH]c(-c3ncc(F)cn3)c2CCN1C(=O)c1cccc(C(F)(F)F)c1Cl` (single isomer, unassigned) [Example 223, (R*)-(2-chloro-3-(trifluoromethyl)phenyl)(3-(5-fluoropyrimidin-2-yl)-7-methyl-4,5-dihydro-2H-pyrazolo[3,4-c]pyridin-6(7H)-yl)methanone]: in assay [2], the “PBMC 10 μM (% control)” value came out at 1.8 % control. For the same compound, the IC50 in assay [3] was 564 nM.

As for `O=C(c1cccc(C(F)(F)F)c1Cl)N1CCc2c(nnn2-c2ccccn2)C1` [Example 63, 5-{[2-Chloro-3-(trifluoromethyl)phenyl]carbonyl}-1-pyridin-2-yl-4,5,6,7-tetrahydro-1H-[1,2,3]triazolo[4,5-c]pyridine], the “PBMC 1 μM (% control)” value in assay [2] was found to be 12.6 % control. The IC50 in assay [3] came to 1090 nM.

For the compound `CC1c2ncn(-c3ccc(F)cn3)c2CCN1C(=O)c1cccc(C(F)(F)F)c1F` (stereo not drawn) [Example 262, (2-fluoro-3-(trifluoromethyl)phenyl)(1-(5-fluoropyridin-2-yl)-4-methyl-6,7-dihydro-1H-imidazo[4,5-c]pyridin-5(4H)-yl)methanone], the “PBMC 10 μM (% control)” value in assay [2] is listed as −3.6 % control. Moreover, in assay [3], the IC50 is 1550 nM.

Regarding `C[C@@H]1c2ncn(-c3ccccn3)c2CCN1C(=O)c1cccc(Cl)c1Cl` (single isomer, unassigned) [Example 192, (R*)-(2,3-Dichlorophenyl)(4-methyl-1-(pyridin-2-yl)-6,7-dihydro-1H-imidazo[4,5-c]pyridin-5(4H)-yl)methanone], the “PBMC 10 μM (% control)” value in assay [2] is −6.3 % control. In addition, the IC50 in assay [3] came to 10000 nM.
